≈ marks a conversion by molar mass, not a printed value.
Assays:
Format in all cases: functional
[1] = tested on: Mycobacterium tuberculosis; assay: Antitubercular activity against Mycobacterium tuberculosis H37Rv assessed as growth inhibition by BACTEC MGIT method
[2] = tested on: Candida albicans; assay: Antimicrobial activity against Candida albicans MTCC 183 assessed as diameter of growth zone inhibition by agar streak dilution method
[3] = tested on: Aspergillus niger; assay: Antimicrobial activity against Aspergillus niger MTCC 282 assessed as diameter of growth zone inhibition by agar streak dilution method
[4] = tested on: Pseudomonas aeruginosa; assay: Antimicrobial activity against Pseudomonas aeruginosa MTCC 741 assessed as diameter of growth zone inhibition by agar streak dilution method
[5] = tested on: Escherichia coli; assay: Antimicrobial activity against Escherichia coli MTCC 739 assessed as diameter of growth zone inhibition by agar streak dilution method
[6] = tested on: Staphylococcus aureus; assay: Antimicrobial activity against Staphylococcus aureus MTCC 96 assessed as diameter of growth zone inhibition by agar streak dilution method
[7] = tested on: Bacillus subtilis; assay: Antimicrobial activity against Bacillus subtilis MTCC 430 assessed as diameter of growth zone inhibition by agar streak dilution method
[8] = tested on: Candida albicans; assay: Antimicrobial activity against Candida albicans MTCC 183 assessed as growth inhibition by agar streak dilution method
[9] = tested on: Aspergillus niger; assay: Antimicrobial activity against Aspergillus niger MTCC 282 assessed as growth inhibition by agar streak dilution method
[10] = tested on: Pseudomonas aeruginosa; assay: Antimicrobial activity against Pseudomonas aeruginosa MTCC 741 assessed as growth inhibition by agar streak dilution method
[11] = tested on: Escherichia coli; assay: Antimicrobial activity against Escherichia coli MTCC 739 assessed as growth inhibition by agar streak dilution method
[12] = tested on: Bacillus subtilis; assay: Antimicrobial activity against Bacillus subtilis MTCC 430 assessed as growth inhibition by agar streak dilution method
[13] = tested on: Staphylococcus aureus; assay: Antimicrobial activity against Staphylococcus aureus MTCC 96 assessed as growth inhibition by agar streak dilution method

| Structure (SMILES) | MIC [1] [µg/mL] | diameter of the inhibition zone (DIZ) [2] [mm] | diameter of the inhibition zone (DIZ) [3] [mm] | diameter of the inhibition zone (DIZ) [4] [mm] | diameter of the inhibition zone (DIZ) [5] [mm] | diameter of the inhibition zone (DIZ) [6] [mm] | diameter of the inhibition zone (DIZ) [7] [mm] | MIC [8] [µg/mL] | MIC [9] [µg/mL] | MIC [10] [µg/mL] | MIC [11] [µg/mL] | MIC [12] [µg/mL] | MIC [13] [µg/mL] |
| --- | --- | --- | --- | --- | --- | --- | --- | --- | --- | --- | --- | --- | --- |
| Cc1ccc(N2C(=O)C(Cl)C2c2cc3ccccc3nc2S)cc1 (centres undefined) | 250 (≈ 704 µM) | 15 | 17 | 18 | 18 | 18 | 19 | 100 (≈ 282 µM) | 100 (≈ 282 µM) | 100 (≈ 282 µM) | 100 (≈ 282 µM) | 100 (≈ 282 µM) | 100 (≈ 282 µM) |
| O=C1C(Cl)C(c2cc3ccccc3nc2S)N1c1ccccc1[N+](=O)[O-] (centres undefined) | 500 (≈ 1300 µM) | 21 | 23 | 24 | 21 | 22 | 22 | 62.5 (≈ 162 µM) | 25 (≈ 64.8 µM) | 25 (≈ 64.8 µM) | 62.5 (≈ 162 µM) | 62.5 (≈ 162 µM) | 62.5 (≈ 162 µM) |
| O=C1C(Cl)C(c2cc3ccccc3nc2S)N1c1cccc([N+](=O)[O-])c1 (centres undefined) | 250 (≈ 648 µM) | 20 | 24 | 23 | 22 | 22 | 22 | 100 (≈ 259 µM) | 12.5 (≈ 32.4 µM) | 50 (≈ 130 µM) | 50 (≈ 130 µM) | 50 (≈ 130 µM) | 50 (≈ 130 µM) |
| O=C1C(Cl)C(c2cc3ccccc3nc2S)N1c1ccc([N+](=O)[O-])cc1 (centres undefined) | 250 (≈ 648 µM) | 20 | 24 | 24 | 25 | 24 | 24 | 100 (≈ 259 µM) | 12.5 (≈ 32.4 µM) | 12.5 (≈ 32.4 µM) | 12.5 (≈ 32.4 µM) | 25 (≈ 64.8 µM) | 50 (≈ 130 µM) |
| O=C1C(Cl)C(c2cc3ccccc3nc2S)N1c1ccccc1Cl (centres undefined) | 125 (≈ 333 µM) | 19 | 20 | 22 | 23 | 24 | 25 | 100 (≈ 266 µM) | 62.5 (≈ 167 µM) | 50 (≈ 133 µM) | 50 (≈ 133 µM) | 12.5 (≈ 33.3 µM) | 6.25 (≈ 16.7 µM) |
| O=C1C(Cl)C(c2cc3ccccc3nc2S)N1c1cccc(Cl)c1 (centres undefined) | 125 (≈ 333 µM) | 21 | 25 | 23 | 22 | 24 | 25 | 62.5 (≈ 167 µM) | 50 (≈ 133 µM) | 62.5 (≈ 167 µM) | 62.5 (≈ 167 µM) | 12.5 (≈ 33.3 µM) | 12.5 (≈ 33.3 µM) |
| O=C1C(Cl)C(c2cc3ccccc3nc2S)N1c1ccc(Cl)cc1 (centres undefined) | 62.5 (≈ 167 µM) | 22 | 25 | 24 | 24 | 26 | 25 | 100 (≈ 266 µM) | 25 (≈ 66.6 µM) | 25 (≈ 66.6 µM) | 25 (≈ 66.6 µM) | 6.25 (≈ 16.7 µM) | 6.25 (≈ 16.7 µM) |
| O=C1C(Cl)C(c2cc3ccccc3nc2S)N1c1ccc(F)cc1 (centres undefined) | 62.5 (≈ 174 µM) | 24 | 25 | 23 | 24 | 26 | 25 | 25 (≈ 69.7 µM) | 12.5 (≈ 34.8 µM) | 25 (≈ 69.7 µM) | 12.5 (≈ 34.8 µM) | 6.25 (≈ 17.4 µM) | 6.25 (≈ 17.4 µM) |

— ChEMBL document CHEMBL3044671, “Synthesis and in vitro antimicrobial and anti-tubercular evaluation of some quinoline-based azitidinone and thiazolidinone analogues” (2013)
